Experimental data from patent US10231954B2, “Neurodegenerative therapies” (LYTIX BIOPHARMA AS, priority 2014, dated 2019).
Like-named read-outs stand apart in the source and are kept apart here.

Tests used:
Assay type in all cases: biochemical
IKKb = target: T1, IKKb (Homo sapiens, UniProt O14920); assay: Kinase profiling IKKb; conditions: for remaining activity at 100 µM: read-out: residual kinase activity, IKKb
T1 sequence (O14920 1-756): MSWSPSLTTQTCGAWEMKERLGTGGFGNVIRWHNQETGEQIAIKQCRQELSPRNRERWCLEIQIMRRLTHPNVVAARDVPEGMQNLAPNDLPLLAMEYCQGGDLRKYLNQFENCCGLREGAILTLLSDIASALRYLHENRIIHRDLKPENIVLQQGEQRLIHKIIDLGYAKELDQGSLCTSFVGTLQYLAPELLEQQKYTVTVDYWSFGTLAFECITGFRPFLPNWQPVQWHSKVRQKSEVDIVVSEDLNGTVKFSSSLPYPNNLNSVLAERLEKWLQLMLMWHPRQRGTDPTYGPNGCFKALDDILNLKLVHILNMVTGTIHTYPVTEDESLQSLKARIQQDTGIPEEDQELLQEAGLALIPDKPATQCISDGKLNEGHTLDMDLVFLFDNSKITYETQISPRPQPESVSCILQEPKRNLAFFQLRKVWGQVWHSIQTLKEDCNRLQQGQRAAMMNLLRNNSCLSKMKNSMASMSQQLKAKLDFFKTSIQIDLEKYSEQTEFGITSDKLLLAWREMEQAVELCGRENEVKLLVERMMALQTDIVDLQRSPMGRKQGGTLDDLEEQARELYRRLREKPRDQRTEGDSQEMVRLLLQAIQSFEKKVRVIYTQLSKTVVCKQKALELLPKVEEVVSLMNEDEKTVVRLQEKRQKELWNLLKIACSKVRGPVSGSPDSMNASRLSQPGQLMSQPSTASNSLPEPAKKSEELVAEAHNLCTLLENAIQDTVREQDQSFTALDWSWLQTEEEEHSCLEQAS
Description: (§1) Any value less that 25 is considered to be highly significant inhibition.

YES1 = YES1 (Homo sapiens, UniProt P07947); assay: Kinase profiling YES1; conditions: for remaining activity at 100 µM: read-out: residual kinase activity, YES1
Description: as §1

MELK = MELK (Homo sapiens, UniProt Q14680); assay: Kinase profiling MELK; conditions: for remaining activity at 100 µM: read-out: residual kinase activity, MELK
Description: as §1

MARK2 = MARK2 (Homo sapiens, UniProt Q7KZI7); assay: Kinase profiling MARK2; conditions: for remaining activity at 100 µM: read-out: residual kinase activity, MARK2
Description: as §1

EPH-A4 = EPH-A4 (Homo sapiens, UniProt P54764); assay: Kinase profiling EPH-A4; conditions: for remaining activity at 100 µM: read-out: residual kinase activity, EPH-A4
Description: as §1

ZAP70 = target: T2, ZAP70 (Homo sapiens, UniProt P43403); assay: Kinase profiling ZAP70; conditions: for remaining activity at 100 µM: read-out: residual kinase activity, ZAP70
T2 sequence (P43403 1-619): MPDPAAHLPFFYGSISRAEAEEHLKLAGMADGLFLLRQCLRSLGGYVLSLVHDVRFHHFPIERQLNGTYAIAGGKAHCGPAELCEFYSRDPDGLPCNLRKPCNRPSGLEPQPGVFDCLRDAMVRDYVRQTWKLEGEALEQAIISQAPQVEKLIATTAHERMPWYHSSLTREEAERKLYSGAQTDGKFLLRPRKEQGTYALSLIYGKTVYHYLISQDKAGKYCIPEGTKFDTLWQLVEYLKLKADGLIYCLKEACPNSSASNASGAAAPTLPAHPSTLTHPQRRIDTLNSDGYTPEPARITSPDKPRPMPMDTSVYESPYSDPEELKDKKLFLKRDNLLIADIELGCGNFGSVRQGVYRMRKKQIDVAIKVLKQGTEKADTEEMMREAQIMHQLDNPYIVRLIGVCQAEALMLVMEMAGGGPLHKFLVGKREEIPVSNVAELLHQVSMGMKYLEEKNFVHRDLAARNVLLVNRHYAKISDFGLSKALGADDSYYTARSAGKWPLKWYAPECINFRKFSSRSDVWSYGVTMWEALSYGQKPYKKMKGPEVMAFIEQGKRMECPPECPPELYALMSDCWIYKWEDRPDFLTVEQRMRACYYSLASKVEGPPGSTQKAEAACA
Description: as §1

CDK2-Cyclin A = CDK2-Cyclin A (Homo sapiens, UniProt P24941); assay: Kinase profiling CDK2-Cyclin A; conditions: for remaining activity at 100 µM: read-out: residual kinase activity, CDK2-Cyclin A
Description: as §1

ERK5 = ERK5 (Homo sapiens, UniProt Q13164); assay: Kinase profiling ERK5; conditions: for remaining activity at 100 µM: read-out: residual kinase activity, ERK5
Description: as §1

MST4 = MST4 (Homo sapiens, UniProt Q9P289); assay: Kinase profiling MST4; conditions: for remaining activity at 100 µM: read-out: residual kinase activity, MST4
Description: as §1

MAP4K3 = target: T3, MAP4K3 (Homo sapiens, UniProt Q8IVH8); assay: Kinase profiling MAP4K3; conditions: for remaining activity at 100 µM: read-out: residual kinase activity, MAP4K3
T3 sequence (Q8IVH8 1-894): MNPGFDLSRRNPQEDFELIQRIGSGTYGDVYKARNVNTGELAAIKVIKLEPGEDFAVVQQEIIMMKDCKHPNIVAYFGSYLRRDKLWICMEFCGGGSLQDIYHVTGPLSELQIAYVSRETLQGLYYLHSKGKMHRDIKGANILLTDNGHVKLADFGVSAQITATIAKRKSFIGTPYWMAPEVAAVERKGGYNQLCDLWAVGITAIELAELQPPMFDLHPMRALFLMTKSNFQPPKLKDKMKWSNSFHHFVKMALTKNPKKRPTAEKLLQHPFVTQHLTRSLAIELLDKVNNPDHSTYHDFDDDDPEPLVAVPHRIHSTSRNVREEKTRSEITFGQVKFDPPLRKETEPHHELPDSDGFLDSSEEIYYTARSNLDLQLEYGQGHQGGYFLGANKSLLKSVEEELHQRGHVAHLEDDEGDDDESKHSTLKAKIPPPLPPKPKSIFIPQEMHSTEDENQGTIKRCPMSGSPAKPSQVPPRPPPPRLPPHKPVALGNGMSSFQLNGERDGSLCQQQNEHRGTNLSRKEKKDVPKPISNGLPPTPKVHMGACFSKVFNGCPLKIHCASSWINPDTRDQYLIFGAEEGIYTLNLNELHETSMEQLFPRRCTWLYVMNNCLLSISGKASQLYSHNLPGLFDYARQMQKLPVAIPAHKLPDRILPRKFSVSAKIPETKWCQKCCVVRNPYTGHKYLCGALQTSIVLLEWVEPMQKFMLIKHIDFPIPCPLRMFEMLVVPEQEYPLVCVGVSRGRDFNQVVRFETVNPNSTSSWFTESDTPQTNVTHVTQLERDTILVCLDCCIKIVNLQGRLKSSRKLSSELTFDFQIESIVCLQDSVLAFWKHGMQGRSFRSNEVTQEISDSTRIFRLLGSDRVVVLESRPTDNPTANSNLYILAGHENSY
Description: as §1

CK1γ2 = CK1γ2 (Homo sapiens, UniProt P78368); assay: Kinase profiling CK1γ2; conditions: for remaining activity at 100 µM: read-out: residual kinase activity, CK1γ2
Description: as §1

[1] = 100 micromolar inhibitor, 100 = no change
[2] = 100 micromolar inhibitor concentration, 100 is no change

YES1, sequence (P07947 whole entry, species assumed): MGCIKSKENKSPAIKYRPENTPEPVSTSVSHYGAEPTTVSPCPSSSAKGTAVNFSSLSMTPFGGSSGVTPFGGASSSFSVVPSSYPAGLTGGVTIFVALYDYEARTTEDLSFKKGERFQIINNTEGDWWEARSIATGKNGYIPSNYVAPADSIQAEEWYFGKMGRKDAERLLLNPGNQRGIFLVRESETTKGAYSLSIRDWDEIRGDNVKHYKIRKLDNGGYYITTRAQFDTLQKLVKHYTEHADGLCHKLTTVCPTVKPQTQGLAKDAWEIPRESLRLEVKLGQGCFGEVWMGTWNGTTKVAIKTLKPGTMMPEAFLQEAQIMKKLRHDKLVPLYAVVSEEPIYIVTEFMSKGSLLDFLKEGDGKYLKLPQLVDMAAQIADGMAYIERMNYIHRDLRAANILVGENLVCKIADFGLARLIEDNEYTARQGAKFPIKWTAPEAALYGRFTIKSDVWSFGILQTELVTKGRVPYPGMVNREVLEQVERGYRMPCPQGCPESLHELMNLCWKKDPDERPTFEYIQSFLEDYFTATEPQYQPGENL
ERK5, sequence (Q13164 whole entry, species assumed): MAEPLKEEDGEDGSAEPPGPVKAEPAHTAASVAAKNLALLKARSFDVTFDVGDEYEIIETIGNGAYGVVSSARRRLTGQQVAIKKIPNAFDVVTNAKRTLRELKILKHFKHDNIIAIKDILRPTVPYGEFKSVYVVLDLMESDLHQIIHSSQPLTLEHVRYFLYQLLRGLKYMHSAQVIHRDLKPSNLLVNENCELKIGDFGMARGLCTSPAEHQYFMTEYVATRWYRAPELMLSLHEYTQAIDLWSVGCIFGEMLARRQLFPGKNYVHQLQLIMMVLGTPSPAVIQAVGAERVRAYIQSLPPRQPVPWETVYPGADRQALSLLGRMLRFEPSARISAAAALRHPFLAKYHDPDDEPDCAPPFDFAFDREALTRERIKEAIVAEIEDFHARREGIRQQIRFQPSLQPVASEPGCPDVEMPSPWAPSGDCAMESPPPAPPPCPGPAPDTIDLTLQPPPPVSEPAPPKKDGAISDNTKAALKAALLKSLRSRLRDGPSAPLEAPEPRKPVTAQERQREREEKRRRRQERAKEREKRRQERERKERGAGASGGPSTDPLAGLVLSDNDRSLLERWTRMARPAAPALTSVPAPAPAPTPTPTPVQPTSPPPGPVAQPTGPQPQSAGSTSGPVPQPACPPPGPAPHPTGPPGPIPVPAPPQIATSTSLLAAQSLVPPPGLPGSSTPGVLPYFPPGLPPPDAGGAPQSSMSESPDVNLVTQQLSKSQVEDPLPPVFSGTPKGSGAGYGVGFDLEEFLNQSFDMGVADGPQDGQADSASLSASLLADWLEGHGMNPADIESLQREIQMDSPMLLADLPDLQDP
MELK, sequence (Q14680 whole entry, species assumed): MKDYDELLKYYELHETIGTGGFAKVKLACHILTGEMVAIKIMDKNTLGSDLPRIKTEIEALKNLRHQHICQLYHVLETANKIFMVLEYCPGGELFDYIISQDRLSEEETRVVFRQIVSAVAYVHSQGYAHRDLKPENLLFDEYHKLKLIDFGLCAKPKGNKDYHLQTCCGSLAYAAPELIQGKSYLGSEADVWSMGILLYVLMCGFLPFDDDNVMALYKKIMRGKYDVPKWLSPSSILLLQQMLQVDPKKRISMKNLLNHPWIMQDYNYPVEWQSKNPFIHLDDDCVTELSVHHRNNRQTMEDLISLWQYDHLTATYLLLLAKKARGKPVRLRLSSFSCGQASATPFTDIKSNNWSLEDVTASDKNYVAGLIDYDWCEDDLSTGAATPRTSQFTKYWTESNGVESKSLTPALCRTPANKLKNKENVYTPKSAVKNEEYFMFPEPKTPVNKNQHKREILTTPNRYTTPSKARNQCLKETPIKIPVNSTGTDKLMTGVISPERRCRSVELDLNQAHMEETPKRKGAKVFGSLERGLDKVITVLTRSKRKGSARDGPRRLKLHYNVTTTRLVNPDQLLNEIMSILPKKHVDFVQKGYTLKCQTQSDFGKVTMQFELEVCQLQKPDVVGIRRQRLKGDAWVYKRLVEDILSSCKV
CK1γ2, sequence (P78368 whole entry): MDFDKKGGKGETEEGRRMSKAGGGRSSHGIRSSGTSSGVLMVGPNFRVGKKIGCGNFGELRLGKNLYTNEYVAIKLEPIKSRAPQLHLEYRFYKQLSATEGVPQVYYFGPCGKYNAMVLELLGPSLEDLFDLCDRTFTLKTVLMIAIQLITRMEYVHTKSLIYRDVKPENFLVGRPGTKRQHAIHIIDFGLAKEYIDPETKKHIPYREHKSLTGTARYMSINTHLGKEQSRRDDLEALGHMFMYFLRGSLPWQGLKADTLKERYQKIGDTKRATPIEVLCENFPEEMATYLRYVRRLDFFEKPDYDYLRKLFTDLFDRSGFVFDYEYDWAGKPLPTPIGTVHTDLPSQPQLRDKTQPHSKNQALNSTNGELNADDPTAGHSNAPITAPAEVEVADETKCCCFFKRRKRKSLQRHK
MARK2, sequence (Q7KZI7 whole entry, species assumed): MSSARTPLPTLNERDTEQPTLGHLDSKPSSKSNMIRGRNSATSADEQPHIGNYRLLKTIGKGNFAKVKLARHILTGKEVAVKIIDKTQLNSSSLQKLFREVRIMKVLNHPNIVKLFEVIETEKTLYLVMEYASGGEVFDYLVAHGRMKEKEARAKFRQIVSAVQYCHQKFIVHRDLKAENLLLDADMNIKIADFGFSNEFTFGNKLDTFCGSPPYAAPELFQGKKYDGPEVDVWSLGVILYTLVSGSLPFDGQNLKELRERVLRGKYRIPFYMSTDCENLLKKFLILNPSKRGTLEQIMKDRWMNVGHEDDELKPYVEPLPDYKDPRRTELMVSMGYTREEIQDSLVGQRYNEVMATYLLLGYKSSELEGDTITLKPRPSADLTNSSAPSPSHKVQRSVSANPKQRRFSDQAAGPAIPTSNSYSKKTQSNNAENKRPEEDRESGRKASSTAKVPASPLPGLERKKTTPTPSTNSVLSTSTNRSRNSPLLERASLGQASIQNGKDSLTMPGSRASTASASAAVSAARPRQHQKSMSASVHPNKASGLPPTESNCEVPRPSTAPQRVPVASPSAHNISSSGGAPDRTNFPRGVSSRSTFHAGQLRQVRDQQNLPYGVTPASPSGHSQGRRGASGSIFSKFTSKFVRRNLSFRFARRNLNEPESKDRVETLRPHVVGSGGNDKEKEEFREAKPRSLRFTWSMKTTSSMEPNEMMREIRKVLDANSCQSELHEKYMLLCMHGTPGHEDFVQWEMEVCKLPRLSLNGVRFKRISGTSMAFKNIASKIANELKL
EPH-A4, sequence (P54764 20-986, species assumed): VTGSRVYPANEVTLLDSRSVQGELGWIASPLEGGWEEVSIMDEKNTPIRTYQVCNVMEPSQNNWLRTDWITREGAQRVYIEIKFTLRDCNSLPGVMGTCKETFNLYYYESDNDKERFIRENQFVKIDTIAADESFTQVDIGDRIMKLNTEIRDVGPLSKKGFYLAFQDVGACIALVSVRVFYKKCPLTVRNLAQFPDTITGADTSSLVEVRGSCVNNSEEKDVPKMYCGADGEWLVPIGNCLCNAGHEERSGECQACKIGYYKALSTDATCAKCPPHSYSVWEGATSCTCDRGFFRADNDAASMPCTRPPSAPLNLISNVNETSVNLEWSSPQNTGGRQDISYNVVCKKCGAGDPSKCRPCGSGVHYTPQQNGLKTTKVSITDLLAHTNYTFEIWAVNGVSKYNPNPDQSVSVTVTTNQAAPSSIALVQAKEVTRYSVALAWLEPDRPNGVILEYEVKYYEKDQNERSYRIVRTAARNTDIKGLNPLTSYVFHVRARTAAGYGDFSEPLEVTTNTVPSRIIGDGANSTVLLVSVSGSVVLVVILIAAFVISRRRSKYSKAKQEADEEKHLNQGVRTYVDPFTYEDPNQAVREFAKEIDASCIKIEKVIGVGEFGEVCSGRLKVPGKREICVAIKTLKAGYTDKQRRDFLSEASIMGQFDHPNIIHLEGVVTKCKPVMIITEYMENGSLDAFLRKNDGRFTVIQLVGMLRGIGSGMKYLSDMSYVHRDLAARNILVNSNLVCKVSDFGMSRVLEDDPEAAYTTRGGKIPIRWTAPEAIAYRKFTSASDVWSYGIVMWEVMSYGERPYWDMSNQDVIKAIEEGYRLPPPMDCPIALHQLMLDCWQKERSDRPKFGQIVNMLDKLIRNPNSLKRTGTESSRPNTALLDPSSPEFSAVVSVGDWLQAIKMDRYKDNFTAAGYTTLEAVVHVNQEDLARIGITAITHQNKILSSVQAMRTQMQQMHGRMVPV
MST4, sequence (Q9P289 whole entry, species assumed): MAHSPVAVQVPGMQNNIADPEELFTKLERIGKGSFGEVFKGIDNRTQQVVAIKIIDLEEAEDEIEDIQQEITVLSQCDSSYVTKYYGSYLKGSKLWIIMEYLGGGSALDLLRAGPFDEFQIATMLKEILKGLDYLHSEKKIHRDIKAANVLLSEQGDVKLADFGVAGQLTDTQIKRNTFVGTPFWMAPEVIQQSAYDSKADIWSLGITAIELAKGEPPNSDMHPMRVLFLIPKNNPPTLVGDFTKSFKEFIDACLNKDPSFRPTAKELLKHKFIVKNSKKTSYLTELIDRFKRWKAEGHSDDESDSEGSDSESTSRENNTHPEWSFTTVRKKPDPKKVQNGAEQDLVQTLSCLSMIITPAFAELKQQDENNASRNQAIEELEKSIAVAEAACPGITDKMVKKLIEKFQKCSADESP

| SMILES | residual kinase activity, IKKb (IKKb; [2]) | residual kinase activity, YES1 (YES1; [2]) | residual kinase activity, MELK (MELK; [2]) | residual kinase activity, MARK2 (MARK2; [2]) | residual kinase activity, EPH-A4 (EPH-A4; [2]) | residual kinase activity, ZAP70 (ZAP70; [2]) | residual kinase activity, CDK2-Cyclin A (CDK2-Cyclin A; [2]) | residual kinase activity, ERK5 (ERK5; [2]) | residual kinase activity, MST4 (MST4; [2]) | residual kinase activity, MAP4K3 (MAP4K3; [2]) | residual kinase activity, CK1γ2 (CK1γ2; [2]) | remaining activity at 100 µM (IKKb; [2]) [%] | remaining activity at 100 µM (YES1; [2]) [%] | remaining activity at 100 µM (MELK; [2]) [%] | remaining activity at 100 µM (MARK2; [2]) [%] | remaining activity at 100 µM (EPH-A4; [2]) [%] | remaining activity at 100 µM (ZAP70; [2]) [%] | remaining activity at 100 µM (CDK2-Cyclin A; [2]) [%] | remaining activity at 100 µM (ERK5; [2]) [%] | remaining activity at 100 µM (MST4; [2]) [%] | other results |
| --- | --- | --- | --- | --- | --- | --- | --- | --- | --- | --- | --- | --- | --- | --- | --- | --- | --- | --- | --- | --- | --- |
| CC(=O)Nc1cccc(NC(=O)c2nc3ccc(O)cc3s2)c1 [Compound 03-07, N-(3-acetamidophenyl)-6-hydroxybenzo[d]thiazole-2-carboxamide] | – | – | – | – | – | – | – | – | – | – | – | – | – | – | – | – | – | – | – | – | remaining activity at 100 µM (IKKb; [1]): 88%; remaining activity at 100 µM (YES1; [1]): 49%; remaining activity at 100 µM (MELK; [1]): 12%; remaining activity at 100 µM (MARK2; [1]): 73%; remaining activity at 100 µM (EPH-A4; [1]): 95%; remaining activity at 100 µM (ZAP70; [1]): 94%; remaining activity at 100 µM (CDK2-Cyclin A; [1]): 99%; remaining activity at 100 µM (ERK5; [1]): 48%; remaining activity at 100 µM (MST4; [1]): 76%; remaining activity at 100 µM (MAP4K3; [1]): 63%; remaining activity at 100 µM (CK1γ2; [1]): 77% |
| O=C(Nc1nc2ccc(O)cc2s1)c1ccccc1 [Compound 03-60] | 87 | 65 | 18 | 65 | 87 | 109 | 78 | 30 | 71 | 56 | 3 | – | – | – | – | – | – | – | – | – | – |
| CC(=O)Nc1nc2ccccc2s1 [Compound 03-32] | 75 | 93 | 83 | 88 | 111 | 111 | 76 | 66 | 110 | 90 | 41 | – | – | – | – | – | – | – | – | – | – |
| O=C(Nc1nc2cc(O)ccc2s1)c1ccncc1 [Compound 03-11] | 80 | 82 | 48 | 79 | 91 | 89 | 98 | 58 | 134 | 73 | 81 | – | – | – | – | – | – | – | – | – | – |
| COc1ccc2sc(NC(C)=O)nc2c1 [Compound 03-21] | – | – | – | – | – | – | – | – | – | – | – | 98 | 93 | 44 | 103 | 98 | 98 | 93 | 57 | 88 | remaining activity at 100 µM (MAP4K3; [2]): 75%; remaining activity at 100 µM (CK1γ2; [2]): 6% |
| CC(=O)Nc1nc2cc(C(F)(F)F)ccc2s1 [Compound 03-73] | – | – | – | – | – | – | – | – | – | – | – | 94 | 108 | 91 | 99 | 103 | 115 | 96 | 67 | 91 | remaining activity at 100 µM (MAP4K3; [2]): 63%; remaining activity at 100 µM (CK1γ2; [2]): 79% |
| CC(=O)Nc1nc2cc(F)ccc2s1 [Compound 03-77] | – | – | – | – | – | – | – | – | – | – | – | 61 | 85 | 67 | 79 | 100 | 109 | 66 | 38 | 88 | remaining activity at 100 µM (MAP4K3; [2]): 55%; remaining activity at 100 µM (CK1γ2; [2]): 22% |
| O=C(Nc1nc2ccc(O)cc2s1)c1cccnc1 [Compound 08-44] | 63 | 74 | 29 | 74 | 89 | 79 | 72 | 43 | 80 | 56 | 20 | – | – | – | – | – | – | – | – | – | – |
